Patent publication US9029559B2, “Substituted 3-heteroaroylamino-propionic acid derivatives and their use as pharmaceuticals” (SANOFI, priority 2011, dated 2015)

Each compound was assayed against Recombinant human cathepsin A (Homo sapiens (Human), UniProt P10619) (assay: Cathepsin A inhibitory activity (cleavage of Bodipy FL-labeled bradykinin, microfluidic capillary electrophoresis)). Conditions: read-out: Activity (Cathepsin A inhibitory activity, IC50).
Assay type: biochemical
Protocol: Pharmacological Tests a) Cathepsin A Inhibitory Activity
Briefly, cathepsin A was incubated at 10 μg/ml with cathepsin L at 1 μg/ml in activation buffer (25 mM 2-(morpholin-4-yl)-ethanesulfonic acid (MES), pH 6.0, containing 5 mM dithiothreitol (DTT)) for 15 min at 37° C.
The activated cathepsin A was diluted in assay buffer (25 mM MES, pH 5.5, containing 5 mM DTT) and mixed with the test compound (dissolved in assay buffer containing (v/v) 3% DMSO) or, in the control experiments, with the vehicle in a multiple assay plate. After incubation for 15 min at room temperature, as substrate then bradykinin carrying an N-terminal ®Bodipy FL (4,4-difluoro-5,7-dimethyl-4-bora-3a,4a-diaza-s-indacene-3-propionyl) label (JPT Peptide Technologies GmbH; dissolved in assay buffer) was added to the mixture. […] After incubation for 15 min at room temperature the reaction was stopped by the addition of stop buffer (130 mM 2-(4-(2-hydroxy-ethyl)-piperazin-1-yl)-ethanesulfonic acid, pH 7.4, containing (v/v) 0.013% ®Triton X-100, 0.13% Coating Reagent 3 (Caliper Life Sciences), 6.5% DMSO and 20 μM ebelactone B (Sigma, #E0886)).
Uncleaved substrate and product were then separated by a microfluidic capillary electrophoresis on a LabChip® 3000 Drug Discovery System (12-Sipper-Chip; Caliper Life Sciences) and quantified by determination of the respective peak areas. Substrate turnover was calculated by dividing product peak area by the sum of substrate and product peak areas, and the enzyme activity and the inhibitory effect of the test compound thus quantified.

Recombinant human cathepsin A, sequence (P10619 29-326): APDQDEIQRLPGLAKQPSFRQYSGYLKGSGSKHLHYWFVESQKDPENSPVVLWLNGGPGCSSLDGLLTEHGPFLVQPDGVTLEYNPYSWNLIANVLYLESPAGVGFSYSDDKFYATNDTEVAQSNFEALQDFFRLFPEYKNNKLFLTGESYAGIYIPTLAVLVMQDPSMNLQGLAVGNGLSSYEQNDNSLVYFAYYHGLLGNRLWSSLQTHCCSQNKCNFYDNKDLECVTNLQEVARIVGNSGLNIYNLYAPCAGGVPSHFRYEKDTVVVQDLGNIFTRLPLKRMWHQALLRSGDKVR
Recombinant human cathepsin A, sequence (P10619 327-480): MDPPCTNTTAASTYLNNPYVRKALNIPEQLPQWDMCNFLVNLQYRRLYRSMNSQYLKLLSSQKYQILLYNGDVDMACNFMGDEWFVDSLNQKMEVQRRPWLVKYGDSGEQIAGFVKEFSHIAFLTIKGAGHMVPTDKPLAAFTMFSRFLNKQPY

| Compound | IC50 [µM] |
| --- | --- |
| O=C(O)C[C@H](NC(=O)c1cccc(-c2ccccc2F)n1)c1ccc(Cl)cc1Cl [compound 605] | 2.28 |
| COc1ccc([C@H](CC(=O)O)NC(=O)c2cccc(-c3ccccc3Cl)n2)cc1 [compound 599] | 2.83 |

Same assay, conditions: read-out: Activity (IC50, cathepsin A inhibition)

| Compound | IC50 [µM] |
| --- | --- |
| O=C(O)CC(NC(=O)c1nc(Cl)ccc1Cl)c1ccc(-c2ccccc2)cc1 (centres unmarked) [compound 498] | 8.55 |
| Cc1ccnc(C(=O)NC(CC(=O)O)c2ccccc2Cl)c1 (centres unmarked) [compound 528] | 5.81 |
| COc1ccc(-c2cccc(C(=O)NC(CC(=O)O)c3ccccc3Cl)n2)cc1 (centres unmarked) [compound 595] | 1.42 |
| COc1ccc(C(=O)N[C@@H](CC(=O)O)c2ccccc2Cl)nc1-c1cccc(C(C)(C)O)c1 [compound 496] | 2.86 |
| Cc1ccccc1[C@H](CC(=O)O)NC(=O)c1cncc(Cl)n1 [compound 514] | 1.21 |
| CCc1ccnc(C(=O)NC(CC(=O)O)c2ccccc2Cl)c1 (centres unmarked) [compound 532] | 10.2 |
| O=C(O)CC(NC(=O)c1ccc2nc[nH]c2n1)c1ccccc1Cl (centres unmarked) [compound 542] | 10.8 |
| Cc1cccc(C(=O)NC(CC(=O)O)c2ccccc2Cl)n1 (centres unmarked) [compound 527] | 4.96 |

Same assay, conditions: read-out: Activity (IC50, cathepsin A inhibitory activity)

| Compound | IC50 [µM] |
| --- | --- |
| COc1ncc(C(=O)N[C@@H](CC(=O)O)c2ccccc2C)cc1-c1ccc(C)cc1 [compound 410] | 5.38 |
| COc1ccc(C(=O)N[C@@H](CC(=O)O)c2ccccc2Cl)nc1-c1ccc(C(F)(F)F)cc1F [compound 214] | 7.02 |
| Cc1ccccc1[C@H](CC(=O)O)NC(=O)c1cc(-c2ccccc2)ccn1 [compound 39] | 1.08 |
| COc1ccc(C(=O)N[C@@H](CC(=O)O)c2ccccc2Cl)nc1-c1ccc2ccccc2c1 [compound 427, (S)-3-(2-Chloro-phenyl)-3-[(5-methoxy-6-naphthalen-2-yl-pyridine-2-carbonyl)-amino]-propionic acid] | 7.11 |
| COc1ccc(C(=O)N[C@@H](CC(=O)O)c2ccccc2F)nc1-c1ccc(F)cc1 [compound 257] | 1.26 |
| Cc1cc(C(=O)N[C@@H](CC(=O)O)c2ccccc2C)nc(C)n1 [compound 55] | 5.26 |
| Cc1ccccc1[C@H](CC(=O)O)NC(=O)c1cccc(N2CCCCC2)n1 [compound 54] | 8.93 |
| COc1ccc(C(=O)N[C@@H](CC(=O)O)c2ccc(C)cc2)nc1-c1ccncc1 [compound 215] | 9.66 |
| COc1ccc(C(=O)N[C@@H](CC(=O)O)c2ccccc2Cl)nc1-c1cccc(F)c1 [compound 426] | 1.54 |
| COc1ccc(Cl)cc1-c1nc(C(=O)N[C@@H](CC(=O)O)c2ccccc2Cl)ccc1OC [compound 459] | 1.15 |
| COc1ccc(C(=O)N[C@@H](CC(=O)O)c2ccccc2Cl)nc1-c1ccc(F)c(F)c1 [compound 440] | 1.96 |
| COc1ccc(C(=O)N[C@@H](CC(=O)O)c2ccccc2F)nc1-c1cccc(-c2ccccc2)c1 [compound 276] | 2.16 |
| COc1cc(Cl)ccc1-c1nc(C(=O)N[C@@H](CC(=O)O)c2ccccc2F)ccc1OC [compound 299] | 1.83 |
| COc1cccc(-c2cc(C(=O)N[C@@H](CC(=O)O)c3ccccc3C)cnc2OC)c1 [compound 412] | 8.36 |
| COc1ccc(C(=O)N[C@@H](CC(=O)O)c2ccccc2Cl)nc1-c1c(C)nn(C)c1C [compound 486] | 4.95 |
| COc1ccc(C(=O)N[C@@H](CC(=O)O)c2ccccc2Cl)nc1-c1ccncc1 [compound 443] | 8.04 |
| COc1ncc(C(=O)N[C@@H](CC(=O)O)c2ccccc2C)cc1-c1ccc(C#N)cc1 [compound 421] | 10.4 |
| CNc1cncc(C(=O)N[C@@H](CC(=O)O)c2ccccc2C)n1 [compound 12] | 7.32 |
| COc1cc(Cl)ccc1-c1nc(C(=O)N[C@@H](CC(=O)O)c2ccc(C)cc2)ccc1OC [compound 232] | 2.33 |
| COc1ccc(C(=O)N[C@@H](CC(=O)O)c2ccccc2F)nc1-c1cccc(C(F)(F)F)c1 [compound 253] | 4.06 |

Same assay, conditions: read-out: Activity [μM] (IC50, cathepsin A inhibitory activity)

| Compound | IC50 [µM] |
| --- | --- |
| COc1ccc(C(=O)N[C@@H](CC(=O)O)c2ccc(C)cc2)nc1-c1ccc(C)cc1 [compound 188] | 4.45 |
| COc1ccc(C(=O)N[C@@H](CC(=O)O)c2ccccc2C)nc1-c1ccncc1 [compound 365] | 5.45 |
| COc1ccc(C(=O)N[C@@H](CC(=O)O)c2ccccc2C)nc1-c1ccc(C(C)=O)cc1 [compound 361] | 9.24 |
| Cc1ccccc1[C@H](CC(=O)O)NC(=O)c1cccc(-c2c(C)noc2C)n1 [compound 159] | 14.4 |
| COc1ncc(C(=O)N[C@@H](CC(=O)O)c2ccccc2Cl)cc1-c1cccc(F)c1 [compound 341] | 9.86 |
| COc1ccc(C(=O)N[C@@H](CC(=O)O)c2ccc(C)cc2)nc1-c1cc(F)cc(F)c1 [compound 207] | 2.65 |
| COc1ccc(C(=O)N[C@@H](CC(=O)O)c2ccccc2F)nc1-c1cccc(F)c1Cl [compound 324] | 1.27 |
| COc1ccc(C(=O)N[C@@H](CC(=O)O)c2ccccc2C)nc1-c1ccnc(N2CCOCC2)c1 [compound 381] | > 10 |
| COc1ccc(C(=O)N[C@@H](CC(=O)O)c2ccccc2Cl)nc1-c1ccc(C(F)(F)F)cc1 [compound 337] | 9.5 |
| COc1ncc(C(=O)N[C@@H](CC(=O)O)c2ccccc2Cl)cc1-c1cccc(Cl)c1 [compound 392, (S)-3-(2-Chloro-phenyl)-3-{[5-(3-choro-phenyl)-6-methoxy-pyridine-3-carbonyl]-amino}-propionic acid] | 10.3 |
| COc1ccc(C(=O)N[C@@H](CC(=O)O)c2ccccc2C)nc1-c1cccc(C#N)c1 [compound 359] | 4.49 |
| COc1ncc(C(=O)N[C@@H](CC(=O)O)c2ccccc2Cl)cc1-c1ccc(C)cc1 [compound 388] | 7.12 |
| COc1cccc(-c2nc(C(=O)N[C@@H](CC(=O)O)c3ccccc3Cl)ccc2OC)c1 [compound 339] | 2.78 |
| COc1ccc(C(=O)N[C@@H](CC(=O)O)c2ccccc2F)nc1-c1cccc(-c2nnc(C)o2)c1 [compound 316] | > 10 |
